Experimental data as given in patent US20170342451A1, “BIOSYNTHESIS OF PACLITAXEL INTERMEDIATE” (Board of Trustees of Michigan State University, priority 2012, published 2017).

Biological target: T1, TycA (Brevibacillus parabrevis, UniProt P09095)
T1 construct: this wild-type tycA cDNA encoding the A-, T-, and E-domains was subcloned into a pSU18 vector; made in house; host or cells: Escherichia coli BL21(DE3)
T1 sequence (P09095 with tags, fused parts or gaps): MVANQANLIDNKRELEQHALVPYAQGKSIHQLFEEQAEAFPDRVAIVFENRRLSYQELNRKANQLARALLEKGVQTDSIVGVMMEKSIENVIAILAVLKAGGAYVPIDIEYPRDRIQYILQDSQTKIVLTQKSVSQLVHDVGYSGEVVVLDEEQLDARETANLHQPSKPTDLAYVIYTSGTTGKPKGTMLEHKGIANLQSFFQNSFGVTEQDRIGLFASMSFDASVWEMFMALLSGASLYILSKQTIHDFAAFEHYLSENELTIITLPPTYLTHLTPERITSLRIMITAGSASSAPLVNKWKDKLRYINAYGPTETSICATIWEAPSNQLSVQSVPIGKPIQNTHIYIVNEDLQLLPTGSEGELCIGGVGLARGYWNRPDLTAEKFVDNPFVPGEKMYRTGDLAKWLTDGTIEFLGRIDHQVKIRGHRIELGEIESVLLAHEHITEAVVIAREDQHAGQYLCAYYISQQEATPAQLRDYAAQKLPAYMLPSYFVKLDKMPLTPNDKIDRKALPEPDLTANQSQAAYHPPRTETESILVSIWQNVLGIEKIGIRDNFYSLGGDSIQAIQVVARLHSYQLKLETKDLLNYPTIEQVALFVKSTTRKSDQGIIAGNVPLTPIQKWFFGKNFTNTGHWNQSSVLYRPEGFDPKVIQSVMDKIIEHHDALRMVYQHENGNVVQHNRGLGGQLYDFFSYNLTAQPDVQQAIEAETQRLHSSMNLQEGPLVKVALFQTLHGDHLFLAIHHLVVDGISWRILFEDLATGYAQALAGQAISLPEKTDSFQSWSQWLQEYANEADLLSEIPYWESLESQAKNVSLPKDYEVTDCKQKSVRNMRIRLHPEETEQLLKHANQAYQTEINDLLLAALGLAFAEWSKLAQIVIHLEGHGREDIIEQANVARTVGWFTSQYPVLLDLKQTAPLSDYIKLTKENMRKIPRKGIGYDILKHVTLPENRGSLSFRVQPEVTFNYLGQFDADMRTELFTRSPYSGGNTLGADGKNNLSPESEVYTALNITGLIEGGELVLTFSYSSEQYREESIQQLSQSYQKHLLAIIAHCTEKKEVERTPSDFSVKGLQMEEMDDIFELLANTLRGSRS
Format: biochemical, Brevibacillus brevis
Details: ATP at apparent saturation
Method: Each (S)-α-phenylalanine, (R)-β-phenylalanine, and (2R,3S)-phenylisoserine substrate (at 1 mM) was separately incubated (31° C.) in 100-μL reactions containing 100 mM HEPES (pH 8.0), ATP (1 mM), MgCl2 (3 mM) and TycA or TycA-S563A (20 μg in 0.1-mL assays) to establish steady-state conditions relative to protein concentration and time. Under steady-state conditions, each (S)-α-phenylalanine, (R)-β-phenylalanine, and (2R,3S)-phenylisoserine substrate, at ten concentration intervals from 5 to 1000 μM (in duplicate), was separately incubated with TycA or TycA-S563A for 1 min at 31° C. The reactions were acid-quenched (pH 3 with 10% formic acid), and the biosynthetic products were quantified by LC-ESI-MRM mass spectrometry (Anderson and Hunter, 2006) on the LC-QP/ESI-MS/MS fitted with a C18 Ascentis Express column (2.5×50 mm, 2.7 μm) at 30° C. An aliquot (5 μL) of each sample was loaded onto the column and the analytes were eluted with the CoA-Elution Gradient (see procedures described above). The effluent from the chromatography column was directed to the mass spectrometer where the first quadrupole mass analyzer (in negative ion mode) was set to select for the molecular ion of a biosynthesized (S)-α-phenylalanine-AMP, (R)-β-phenylalanine-AMP, and (2R,3S)-phenylisoserine-AMP. […]

N[C@H](CC(=O)O)c1ccccc1 [(R)-β-Phe, (R)-β-phenylalanine]
kcat^ATP/KM of TycA lower than the value for conversion to the CoA thioester: ~15 fold | kcat^ATP (acyl-AMP formation): 0.00167 ± 0.00017 s⁻¹
